# Results published in ChEMBL document CHEMBL1201862, “PubChem BioAssay data set” (2004).
#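 Step 1: Grow cells in 96-well plates. Step 2: Expose to compound for 48 hours at 5 concentrations. Step 3: Interpolate endpoints linearly; if unreached, use highest concentration. Abbreviation: GI50, concentration required for 50% inhibition of growth.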 Active and inactive are the calls of the source. Rule as the data show it: active = GI50 up to about 1.1 µM and inactive = higher.
# Columns and labels:
# Test in all cases: DTP human tumour cell line panel, 48 h
# [1] = test system: SNB-19
# [2] = test system: EKVX
# [3] = test system: NCI-H460
# [4] = test system: 786-0
# [5] = test system: HOP-62
# [6] = test system: U-251
# [7] = test system: SN12C
# [8] = test system: NCI-H23
# [9] = test system: Hs-578T
# [10] = test system: TK-10
# [11] = test system: HOP-92
# [12] = test system: HL-60
# [13] = test system: T47D
# [14] = test system: HT-29
# [15] = test system: CCRF-CEM
# [16] = test system: HCC 2998
# [17] = test system: CAKI-1
# [18] = test system: DU-145
# [19] = test system: A549
# [20] = test system: OVCAR-3
# [21] = test system: COLO 205
# [22] = test system: K562
# [23] = test system: HCT-15
# [24] = test system: MDA-MB-435
# [25] = test system: KM12
# [26] = test system: NCI-H522
# [27] = test system: SF-295
# [28] = test system: MCF7
# [29] = test system: SK-MEL-28
# [30] = test system: PC-3
# [31] = test system: SK-MEL-5
# [32] = test system: MDA-MB-231
# [33] = test system: MOLT-4
# [34] = test system: Malme-3M
# [35] = test system: SNB-75
# [36] = test system: SF-539
# [37] = test system: RPMI-8226
# [38] = test system: SK-OV-3
# [39] = test system: RXF 393
# [40] = test system: UACC-257
# [41] = test system: OVCAR-8
# [42] = test system: HCT-116
# [43] = test system: SW-620
# [44] = test system: M14
# [45] = test system: UACC-62
# [46] = test system: NCI/ADR-RES
# [47] = test system: A498
# [48] = test system: BT-549
# [49] = test system: UO-31
# [50] = test system: SF-268
# [51] = test system: OVCAR-5
# [52] = test system: OVCAR-4
# [53] = test system: SK-MEL-2
# [54] = test system: SR
# [55] = test system: LOX IMVI
# [56] = test system: IGROV-1
# [57] = test system: MDA-N
# [58] = test system: NCI-H226
# [59] = test system: ACHN
compound,measurement,setting,value
O=C1/C(=C\c2ccc(F)cc2)CCOc2c1ccc1ccccc21,GI50,[1],17.7 µM (inactive)
same,GI50,[2],31.4 µM (inactive)
same,GI50,[3],25.1 µM (inactive)
same,GI50,[4],23 µM (inactive)
same,GI50,[5],26.8 µM (inactive)
same,GI50,[6],10.6 µM (inactive)
same,GI50,[7],35.3 µM (inactive)
same,GI50,[8],12.8 µM (inactive)
same,GI50,[9],40.3 µM (inactive)
same,GI50,[10],24.4 µM (inactive)
same,GI50,[11],24.9 µM (inactive)
same,GI50,[12],14.9 µM (inactive)
same,GI50,[13],41.6 µM (inactive)
same,GI50,[14],17.4 µM (inactive)
same,GI50,[15],5.82 µM (inactive)
same,GI50,[16],3.48 µM (inactive)
same,GI50,[17],21.1 µM (inactive)
same,GI50,[18],31 µM (inactive)
same,GI50,[19],23.4 µM (inactive)
same,GI50,[20],8.15 µM (inactive)
same,GI50,[21],19 µM (inactive)
same,GI50,[22],6.68 µM (inactive)
same,GI50,[23],11.2 µM
same,GI50,[24],26.8 µM (inactive)
same,GI50,[25],7.94 µM (inactive)
same,GI50,[26],34 µM (inactive)
same,GI50,[27],22 µM (inactive)
same,GI50,[28],10.4 µM (inactive)
same,GI50,[29],23.3 µM (inactive)
same,GI50,[30],33 µM (inactive)
same,GI50,[31],21.2 µM (inactive)
same,GI50,[32],14.8 µM (inactive)
same,GI50,[33],7.67 µM (inactive)
same,GI50,[34],16.5 µM (inactive)
same,GI50,[35],12.4 µM (inactive)
same,GI50,[36],21.9 µM (inactive)
same,GI50,[37],3.3 µM (inactive)
same,GI50,[38],36.6 µM (inactive)
same,GI50,[39],13.4 µM (inactive)
same,GI50,[40],19.5 µM (inactive)
same,GI50,[41],12.7 µM (inactive)
same,GI50,[42],3.49 µM (inactive)
same,GI50,[43],14.4 µM (inactive)
same,GI50,[44],26.2 µM (inactive)
same,GI50,[45],37.2 µM (inactive)
same,GI50,[46],16.3 µM (inactive)
same,GI50,[47],27.4 µM (inactive)
same,GI50,[48],25.6 µM (inactive)
same,GI50,[49],> 55.2 µM (inactive)
same,GI50,[50],23.4 µM (inactive)
same,GI50,[51],18.5 µM (inactive)
same,GI50,[52],15.3 µM (inactive)
same,GI50,[53],45.7 µM (inactive)
CC1C/C(=C\c2ccc(O)c(O)c2)C(=O)/C(=C/c2ccc(O)c(O)c2)C1 (configuration not stated),GI50,[1],10.7 µM (inactive)
same,GI50,[2],14.1 µM (inactive)
same,GI50,[3],12.7 µM (inactive)
same,GI50,[54],3.82 µM (inactive)
same,GI50,[5],11.3 µM (inactive)
same,GI50,[55],7.06 µM (inactive)
same,GI50,[6],5.51 µM (inactive)
same,GI50,[7],5.48 µM (inactive)
same,GI50,[8],4.14 µM (inactive)
same,GI50,[9],4.06 µM (inactive)
same,GI50,[10],25 µM (inactive)
same,GI50,[11],6.18 µM (inactive)
same,GI50,[12],4.93 µM (inactive)
same,GI50,[13],4.57 µM (inactive)
same,GI50,[14],18 µM (inactive)
same,GI50,[15],3.06 µM (inactive)
same,GI50,[16],18.2 µM (inactive)
same,GI50,[17],5.74 µM (inactive)
same,GI50,[18],8.85 µM (inactive)
same,GI50,[56],6 µM (inactive)
same,GI50,[19],13.4 µM (inactive)
same,GI50,[20],5.25 µM (inactive)
same,GI50,[21],16.9 µM (inactive)
same,GI50,[57],4.69 µM (inactive)
same,GI50,[22],5.83 µM (inactive)
same,GI50,[23],8.85 µM
same,GI50,[24],2.83 µM (inactive)
same,GI50,[25],8.17 µM (inactive)
same,GI50,[26],1.81 µM (inactive)
same,GI50,[27],13.7 µM (inactive)
same,GI50,[28],3.11 µM (inactive)
same,GI50,[29],7.69 µM (inactive)
same,GI50,[30],14 µM (inactive)
same,GI50,[31],4.23 µM (inactive)
same,GI50,[58],2.86 µM (inactive)
same,GI50,[32],11.3 µM (inactive)
same,GI50,[33],4.76 µM (inactive)
same,GI50,[34],10.4 µM (inactive)
same,GI50,[35],4.73 µM (inactive)
same,GI50,[59],8.71 µM (inactive)
same,GI50,[36],3.25 µM (inactive)
same,GI50,[38],18.1 µM (inactive)
same,GI50,[39],3.73 µM (inactive)
same,GI50,[40],14.5 µM (inactive)
same,GI50,[41],9.04 µM (inactive)
same,GI50,[42],6.67 µM (inactive)
same,GI50,[43],11.6 µM (inactive)
same,GI50,[45],3.17 µM (inactive)
same,GI50,[46],18.5 µM (inactive)
same,GI50,[47],3.18 µM (inactive)
same,GI50,[50],6.12 µM (inactive)
same,GI50,[51],17.3 µM (inactive)
same,GI50,[52],7.16 µM (inactive)
same,GI50,[53],6.97 µM (inactive)
